Measurements from patent US20260297070A1, “CYCLIC [COMPOUND LEFT OUT] WRN INHIBITORS” (Nimbus Wadjet, Inc., priority 2023, published 2026).

These compounds were tested against T1, human Werner helicase (WRN-BV08, Uniprot Q14191, amino acids 517-1235 with L1074F point mutation) (Homo sapiens, UniProt Q14191, L1074F) (assay: WRN (BV08) ADP-Glo Assay). Conditions: 0.15 nM WRN, 5 μM ATP, 0.1 nM DNA duplex, 15 min preincubation, 60 min at 25° C., pH 7.5, 1% DMSO; read-out: ADP-Glo_hWRN_IC50.
T1 construct: Uniprot Q14191, amino acids 517-1235 with L1074F point mutation; TEV-cleavable 8×His (C, cleaved yes); made in house; host or cells: Sf9 insect cells (baculovirus)
Type: biochemical
Outline: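 0.15 nM WRN (aa 517-1235, L1074F, Sf9-expressed, tag cleaved) preincubated 15 min at 25 °C with compound, then 5 μM ATP and 0.1 nM DNA duplex added for 60 min. Buffer: 20 mM Bicine pH 7.5, 1 mM MgCl2, 10 mM KCl, 1 mM TCEP; 1% DMSO. ADP-Glo luminescence; IC50 by 4-parameter fit.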

T1 sequence (Q14191 with tags, fused parts or gaps L1074F limits assumed): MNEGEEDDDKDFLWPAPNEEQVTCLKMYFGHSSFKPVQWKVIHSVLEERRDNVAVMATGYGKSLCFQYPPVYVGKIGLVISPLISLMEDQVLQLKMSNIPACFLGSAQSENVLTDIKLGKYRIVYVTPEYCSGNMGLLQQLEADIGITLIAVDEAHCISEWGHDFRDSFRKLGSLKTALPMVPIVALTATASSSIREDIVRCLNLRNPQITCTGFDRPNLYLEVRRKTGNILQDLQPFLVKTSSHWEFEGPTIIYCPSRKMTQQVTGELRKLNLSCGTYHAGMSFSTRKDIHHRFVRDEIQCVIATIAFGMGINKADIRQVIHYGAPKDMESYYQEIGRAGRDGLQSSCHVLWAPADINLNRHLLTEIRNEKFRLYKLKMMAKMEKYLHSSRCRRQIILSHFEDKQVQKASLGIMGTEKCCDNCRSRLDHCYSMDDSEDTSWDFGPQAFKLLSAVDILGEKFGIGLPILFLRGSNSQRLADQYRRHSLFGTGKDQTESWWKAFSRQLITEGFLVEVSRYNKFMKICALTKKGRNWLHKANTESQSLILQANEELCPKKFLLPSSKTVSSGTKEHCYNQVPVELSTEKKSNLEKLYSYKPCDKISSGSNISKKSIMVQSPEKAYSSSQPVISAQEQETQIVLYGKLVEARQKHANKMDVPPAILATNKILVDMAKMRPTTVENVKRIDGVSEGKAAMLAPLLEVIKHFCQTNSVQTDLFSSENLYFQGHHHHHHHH

Question: Which IC50 does the source give for `CC(C)(O)COc1cc(CN(C(=O)Cc2ccc(S(F)(F)(F)(F)F)cc2)C2C=CS(=O)(=O)C2)ccn1` (stereo not shown) [I-768, N-(1,1-dioxo-2,3-dihydro-1lambda6-thiophen-3-yl)-N-{[2-(2-hydroxy-2-methylpropoxy)pyridin-4-yl]methyl}-2-[4-(pentafluoro-lambda6-sulfanyl)phenyl]acetamide] here?
Answer: < 500 nM

Question: For `COc1cc(CN(C(=O)Cn2ncc3cc(C(F)(F)C(F)(F)F)ccc32)[C@@H]2C=CS(=O)(=O)C2)ccn1` [I-770, N-[(3R)-1,1-dioxo-2,3-dihydro-1lambda6-thiophen-3-yl]-N-[(2-methoxypyridin-4-yl)methyl]-2-[5-(1,1,2,2,2-pentafluoroethyl)-1H-indazol-1-yl]acetamide], which IC50 is on record?
Answer: 500 to 5000 nM

Question: With `COc1cc(CN(C(=O)Cn2cc3cc(C(F)(F)C(F)(F)F)ccc3n2)[C@@H]2C=CS(=O)(=O)C2)ccn1` [I-771, N-[(3R)-1,1-dioxo-2,3-dihydro-1lambda6-thiophen-3-yl]-N-[(2-methoxypyridin-4-yl)methyl]-2-[5-(1,1,2,2,2-pentafluoroethyl)-2H-indazol-2-yl]acetamide] as the compound, how does the IC50 read?
Answer: < 500 nM

Question: How did the IC50 turn out when `O=C(Cn1cc(-c2cc(F)c(F)c(F)c2)cn1)N(Cc1ccnc(Oc2ccncc2)c1)C1C=CS(=O)(=O)C1` (stereo not shown) [I-772, N-(1,1-dioxo-2,3-dihydro-1lambda6-thiophen-3-yl)-N-{[2-(pyridin-4-yloxy)pyridin-4-yl]methyl}-2-[4-(3,4,5-trifluorophenyl)-1H-pyrazol-1-yl]acetamide] was run?
Answer: < 500 nM

Question: How did the IC50 turn out when `CN(Cc1ccncc1)C(=O)c1ccc(CN(C(=O)Cc2ccc(-c3ccc(F)c(F)c3)cc2F)C2C=CS(=O)(=O)C2)cc1` (stereo not shown) [I-778, 4-{[N-(1,1-dioxo-2,3-dihydro-1lambda6-thiophen-3-yl)-2-{3,3′,4′-trifluoro-[1,1′-biphenyl]-4-yl}acetamido]methyl}-N-methyl-N-[(pyridin-4-yl)methyl]benzamide] was run?
Answer: 500 to 5000 nM

Question: How did the IC50 turn out when `CN(C)C(=O)c1ccc(CN(C(=O)Cc2ccc(-c3ccc(F)c(F)c3)cc2F)C2C=CS(=O)(=O)C2)cc1` (stereo not shown) [I-779, 4-{[N-(1,1-dioxo-2,3-dihydro-1lambda6-thiophen-3-yl)-2-{3,3′,4′-trifluoro-[1,1′-biphenyl]-4-yl}acetamido]methyl}-N,N-dimethylbenzamide] was run?
Answer: 500 to 5000 nM

Question: With `O=C(c1ccc(CN(C(=O)Cc2ccc(-c3ccc(F)c(F)c3)cc2F)C2C=CS(=O)(=O)C2)cc1)N1CCOCC1` (stereo not shown) [I-780, N-(1,1-dioxo-2,3-dihydro-1lambda6-thiophen-3-yl)-N-{[4-(morpholine-4-carbonyl)phenyl]methyl}-2-{3,3′,4′-trifluoro-[1,1′-biphenyl]-4-yl}acetamide] as the compound, how does the IC50 read?
Answer: 500 to 5000 nM

Question: How did the IC50 turn out when `O=C(Cn1cc(-c2cc(F)c(F)c(F)c2)cn1)N(Cc1ccc(Cc2ccncc2)cc1)C1C=CS(=O)(=O)C1` (stereo not shown) [I-782, N-(1,1-dioxo-2,3-dihydro-1lambda6-thiophen-3-yl)-N-({4-[(pyridin-4-yl)methyl]phenyl}methyl)-2-[4-(3,4,5-trifluorophenyl)-1H-pyrazol-1-yl]acetamide] was run?
Answer: < 500 nM

Question: Which IC50 does the source give for `O=C(Cn1cc(-c2cc(F)c(F)c(F)c2)cn1)N(Cc1ccc(OCc2ccncc2)cc1)C1C=CS(=O)(=O)C1` (stereo not shown) [I-783, N-(1,1-dioxo-2,3-dihydro-1lambda6-thiophen-3-yl)-N-({4-[(pyridin-4-yl)methoxy]phenyl}methyl)-2-[4-(3,4,5-trifluorophenyl)-1H-pyrazol-1-yl]acetamide] here?
Answer: < 500 nM

Question: `COc1cc(CN(C(=O)C2CCc3c([nH]c4cccc(Cl)c34)C2)[C@@H]2C=CS(=O)(=O)C2)ccn1` (stereo partly drawn) [I-785, 5-chloro-N-[(3R)-1,1-dioxo-2,3-dihydro-1lambda6-thiophen-3-yl]-N-[(2-methoxypyridin-4-yl)methyl]-2,3,4,9-tetrahydro-1H-carbazole-2-carboxamide] was tested. Which IC50 did it give?
Answer: > 50000 nM

Question: With `COc1cc(CN(C(=O)C2CCc3[nH]c4cc(Cl)ccc4c3C2)[C@@H]2C=CS(=O)(=O)C2)ccn1` (stereo partly drawn) [I-786, 7-chloro-N-[(3R)-1,1-dioxo-2,3-dihydro-1lambda6-thiophen-3-yl]-N-[(2-methoxypyridin-4-yl)methyl]-2,3,4,9-tetrahydro-1H-carbazole-3-carboxamide] as the compound, how does the IC50 read?
Answer: 500 to 5000 nM

Question: Which IC50 does the source give for `O=C(Cn1cc(-c2ccc(F)c(F)c2)cn1)N(Cc1ccnc(N2CCNCC2)c1)C1C=CS(=O)(=O)C1` (stereo not shown) [I-787, 2-[4-(3,4-difluorophenyl)-1H-pyrazol-1-yl]-N-(1,1-dioxo-2,3-dihydro-1lambda6-thiophen-3-yl)-N-{[2-(piperazin-1-yl)pyridin-4-yl]methyl}acetamide] here?
Answer: 500 to 5000 nM

Question: How did the IC50 turn out when `CN(CCc1ccncc1)C(=O)c1ccc(CN(C(=O)Cc2ccc(-c3ccc(F)c(F)c3)cc2F)C2C=CS(=O)(=O)C2)cc1` (stereo not shown) [I-791, 4-{[N-(1,1-dioxo-2,3-dihydro-1lambda6-thiophen-3-yl)-2-{3,3′,4′-trifluoro-[1,1′-biphenyl]-4-yl}acetamido]methyl}-N-methyl-N-[2-(pyridin-4-yl)ethyl]benzamide] was run?
Answer: 500 to 5000 nM

Question: For `COc1cc(CN(C(=O)C(O/C=C/S(C)(=O)=O)c2ccc(-c3ccc(F)c(F)c3)cc2F)[C@@H]2C=CS(=O)(=O)C2)ccn1` (stereo partly drawn) [I-793, N-[(3R)-1,1-dioxo-2,3-dihydro-1lambda6-thiophen-3-yl]-2-{[(1E)-2-methanesulfonylethenyl]oxy}-N-[(2-methoxypyridin-4-yl)methyl]-2-{3,3′,4′-trifluoro-[1,1′-biphenyl]-4-yl}acetamide], which IC50 is on record?
Answer: 500 to 5000 nM

Question: For `CC(C)(N)c1ccc(CN(C(=O)Cn2cc(-c3ccc(F)c(F)c3)cn2)C2C=CS(=O)(=O)C2)cc1` (stereo not shown) [I-795, N-{[4-(2-aminopropan-2-yl)phenyl]methyl}-2-[4-(3,4-difluorophenyl)-1H-pyrazol-1-yl]-N-(1,1-dioxo-2,3-dihydro-1lambda6-thiophen-3-yl)acetamide], which IC50 is on record?
Answer: 500 to 5000 nM

Question: Which IC50 does the source give for `O=C(c1ccc(CN(C(=O)Cc2ccc(-c3ccc(F)c(F)c3)cc2F)C2C=CS(=O)(=O)C2)cc1)N1CCCCC1` (stereo not shown) [I-796, N-(1,1-dioxo-2,3-dihydro-1lambda6-thiophen-3-yl)-N-{[4-(piperidine-1-carbonyl)phenyl]methyl}-2-{3,3′,4′-trifluoro-[1,1′-biphenyl]-4-yl}acetamide] here?
Answer: 500 to 5000 nM

Question: Which IC50 does the source give for `CC(C)(O)c1csc(CN(C(=O)Cn2cc(-c3cc(F)c(F)c(F)c3)cn2)C2C=CS(=O)(=O)C2)n1` (stereo not shown) [I-797, N-(1,1-dioxo-2,3-dihydro-1lambda6-thiophen-3-yl)-N-{[4-(2-hydroxypropan-2-yl)-1,3-thiazol-2-yl]methyl}-2-[4-(3,4,5-trifluorophenyl)-1H-pyrazol-1-yl]acetamide] here?
Answer: < 500 nM

Question: For `COc1cc(CN(C(=O)C(OCC2COC2)c2ccc(-c3ccc(F)c(F)c3)cc2F)[C@@H]2C=CS(=O)(=O)C2)ccn1` (stereo partly drawn) [I-807, N-[(3R)-1,1-dioxo-2,3-dihydro-1lambda6-thiophen-3-yl]-N-[(2-methoxypyridin-4-yl)methyl]-2-[(oxetan-3-yl)methoxy]-2-{3,3′,4′-trifluoro-[1,1′-biphenyl]-4-yl}acetamide], which IC50 is on record?
Answer: 5000 to 10000 nM

Question: `COc1cc(CN(C(=O)C(OCC2CCN(S(C)(=O)=O)C2)c2ccc(-c3ccc(F)c(F)c3)cc2F)[C@@H]2C=CS(=O)(=O)C2)ccn1` (stereo partly drawn) [I-808, N-[(3R)-1,1-dioxo-2,3-dihydro-1lambda6-thiophen-3-yl]-2-[(1-methanesulfonylpyrrolidin-3-yl)methoxy]-N-[(2-methoxypyridin-4-yl)methyl]-2-{3,3′,4′-trifluoro-[1,1′-biphenyl]-4-yl}acetamide] was tested. Which IC50 did it give?
Answer: 500 to 5000 nM

Question: With `COc1cc(CN(C(=O)C(OCC2CCCN(S(C)(=O)=O)C2)c2ccc(-c3ccc(F)c(F)c3)cc2F)[C@@H]2C=CS(=O)(=O)C2)ccn1` (stereo partly drawn) [I-809, N-[(3R)-1,1-dioxo-2,3-dihydro-1lambda6-thiophen-3-yl]-2-[(1-methanesulfonylpiperidin-3-yl)methoxy]-N-[(2-methoxypyridin-4-yl)methyl]-2-{3,3′,4′-trifluoro-[1,1′-biphenyl]-4-yl}acetamide] as the compound, how does the IC50 read?
Answer: 500 to 5000 nM

Question: For `COc1cc(CN(C(=O)C(OCC2CN(S(C)(=O)=O)C2)c2ccc(-c3ccc(F)c(F)c3)cc2F)[C@@H]2C=CS(=O)(=O)C2)ccn1` (stereo partly drawn) [I-810, N-[(3R)-1,1-dioxo-2,3-dihydro-1lambda6-thiophen-3-yl]-2-[(1-methanesulfonylazetidin-3-yl)methoxy]-N-[(2-methoxypyridin-4-yl)methyl]-2-{3,3′,4′-trifluoro-[1,1′-biphenyl]-4-yl}acetamide], which IC50 is on record?
Answer: 500 to 5000 nM

Question: How did the IC50 turn out when `COc1cc(CN(C(=O)C(OCC2CCOCC2)c2ccc(-c3ccc(F)c(F)c3)cc2F)[C@@H]2C=CS(=O)(=O)C2)ccn1` (stereo partly drawn) [I-811, N-[(3R)-1,1-dioxo-2,3-dihydro-1lambda6-thiophen-3-yl]-N-[(2-methoxypyridin-4-yl)methyl]-2-[(oxan-4-yl)methoxy]-2-{3,3′,4′-trifluoro-[1,1′-biphenyl]-4-yl}acetamide] was run?
Answer: 500 to 5000 nM

Question: With `Cc1nn(-c2ccc(F)cc2F)c(C)c1CC(=O)N(Cc1ccncc1)C1C=CS(=O)(=O)C1` (stereo not shown) [I-816, 2-[1-(2,4-difluorophenyl)-3,5-dimethyl-1H-pyrazol-4-yl]-N-(1,1-dioxo-2,3-dihydro-1lambda6-thiophen-3-yl)-N-[(pyridin-4-yl)methyl]acetamide] as the compound, how does the IC50 read?
Answer: > 50000 nM

Question: How did the IC50 turn out when `O=C(Cc1ccc(S(F)(F)(F)(F)F)cc1)N(Cc1ccc(=O)[nH]n1)C1C=CS(=O)(=O)C1` (stereo not shown) [I-817, N-(1,1-dioxo-2,3-dihydro-1lambda6-thiophen-3-yl)-N-[(6-oxo-1,6-dihydropyridazin-3-yl)methyl]-2-[4-(pentafluoro-lambda6-sulfanyl)phenyl]acetamide] was run?
Answer: 500 to 5000 nM

Question: Which IC50 does the source give for `O=C1NC(c2ccccc2)CCN1CC(=O)N(Cc1ccncc1)C1C=CS(=O)(=O)C1` (stereo not shown) [I-819, N-(1,1-dioxo-2,3-dihydro-1lambda6-thiophen-3-yl)-2-(2-oxo-4-phenyl-1,3-diazinan-1-yl)-N-[(pyridin-4-yl)methyl]acetamide] here?
Answer: 10000 to 50000 nM
